Measured values as given in PubChem BioAssay (NCI).
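How tested: cells in 96-well plates exposed to compound for 48 hours at five concentrations. GI50 is the concentration that inhibits growth by half. The concentration for full growth arrest is given as TGI.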

Tests used:
Test in all cases: growth of human tumour cells (NCI), 48 h
786-0 renal = test system: 786-0 renal
A498 renal = test system: A498 renal
A549 NSCLC = test system: A549 NSCLC
ACHN renal = test system: ACHN renal
BT-549 breast = test system: BT-549 breast
CAKI-1 renal = test system: CAKI-1 renal
COLO 205 colon = test system: COLO 205 colon
DU-145 prostate = test system: DU-145 prostate
HCC-2998 colon = test system: HCC-2998 colon
HCT-116 colon = test system: HCT-116 colon
HCT-15 colon = test system: HCT-15 colon
HL-60(TB) leukemia = test system: HL-60(TB) leukemia
HOP-62 NSCLC = test system: HOP-62 NSCLC
HOP-92 NSCLC = test system: HOP-92 NSCLC
HS 578T breast = test system: HS 578T breast
HT29 colon = test system: HT29 colon
IGROV1 ovarian = test system: IGROV1 ovarian
K-562 leukemia = test system: K-562 leukemia
KM12 colon = test system: KM12 colon
LOX IMVI melanoma = test system: LOX IMVI melanoma
M14 melanoma = test system: M14 melanoma
MALME-3M melanoma = test system: MALME-3M melanoma
MCF7 breast = test system: MCF7 breast
MDA-MB-231 breast = test system: MDA-MB-231 breast
MDA-MB-435 = test system: MDA-MB-435
MOLT-4 leukemia = test system: MOLT-4 leukemia
NCI-H226 lung = test system: NCI-H226 lung
NCI-H23 lung = test system: NCI-H23 lung
NCI-H460 lung = test system: NCI-H460 lung
NCI-H522 lung = test system: NCI-H522 lung
NCI/ADR-RES ovarian = test system: NCI/ADR-RES ovarian
OVCAR-3 ovarian = test system: OVCAR-3 ovarian
OVCAR-4 ovarian = test system: OVCAR-4 ovarian
OVCAR-5 ovarian = test system: OVCAR-5 ovarian
OVCAR-8 ovarian = test system: OVCAR-8 ovarian
PC-3 prostate = test system: PC-3 prostate
RPMI-8226 leukemia = test system: RPMI-8226 leukemia
RXF 393 renal = test system: RXF 393 renal
SF-268 CNS = test system: SF-268 CNS
SF-295 CNS = test system: SF-295 CNS
SF-539 CNS = test system: SF-539 CNS
SK-MEL-2 melanoma = test system: SK-MEL-2 melanoma
SK-MEL-28 melanoma = test system: SK-MEL-28 melanoma
SK-MEL-5 melanoma = test system: SK-MEL-5 melanoma
SK-OV-3 ovarian = test system: SK-OV-3 ovarian
SN12C renal = test system: SN12C renal
SNB-19 CNS = test system: SNB-19 CNS
SNB-75 CNS = test system: SNB-75 CNS
SR leukemia = test system: SR leukemia
SW-620 colon = test system: SW-620 colon
T-47D breast = test system: T-47D breast
TK-10 renal = test system: TK-10 renal
U251 CNS = test system: U251 CNS
UACC-257 melanoma = test system: UACC-257 melanoma
UACC-62 melanoma = test system: UACC-62 melanoma
UO-31 renal = test system: UO-31 renal

Compound: COc1cc(/C=C/C(=O)c2ccc(NC(=O)CN3CCN(c4cc5c(cc4F)c(=O)c(C(=O)O)cn5C4CC4)CC3)cc2)cc(OC)c1OC
- GI50 (786-0 renal): 947 nM
- TGI (786-0 renal): 3190 nM
- GI50 (A498 renal): 825 nM
- TGI (A498 renal): 2830 nM
- GI50 (A549 NSCLC): 368 nM
- TGI (A549 NSCLC): 2140 nM
- GI50 (ACHN renal): 692 nM
- TGI (ACHN renal): > 26600 nM
- GI50 (BT-549 breast): 405 nM
- TGI (BT-549 breast): 1440 nM
- GI50 (CAKI-1 renal): 1470 nM
- TGI (CAKI-1 renal): > 32500 nM
- GI50 (COLO 205 colon): 1340 nM
- TGI (COLO 205 colon): 8110 nM
- GI50 (DU-145 prostate): 1070 nM
- TGI (DU-145 prostate): > 27100 nM
- GI50 (HCC-2998 colon): 3160 nM
- TGI (HCC-2998 colon): 14100 nM
- GI50 (HCT-116 colon): 324 nM
- TGI (HCT-116 colon): 1310 nM
- GI50 (HCT-15 colon): 575 nM
- TGI (HCT-15 colon): > 100000 nM
- GI50 (HL-60(TB) leukemia): 1750 nM
- TGI (HL-60(TB) leukemia): > 29800 nM
- GI50 (HOP-62 NSCLC): 353 nM
- TGI (HOP-62 NSCLC): 3930 nM
- GI50 (HOP-92 NSCLC): 1790 nM
- TGI (HOP-92 NSCLC): 7580 nM
- GI50 (HS 578T breast): 16300 nM
- TGI (HS 578T breast): > 100000 nM
- GI50 (HT29 colon): 285 nM
- TGI (HT29 colon): 1020 nM
- GI50 (IGROV1 ovarian): 671 nM
- TGI (IGROV1 ovarian): 3370 nM
- GI50 (K-562 leukemia): 360 nM
- TGI (K-562 leukemia): > 100000 nM
- GI50 (KM12 colon): 451 nM
- TGI (KM12 colon): 2310 nM
- GI50 (LOX IMVI melanoma): 511 nM
- TGI (LOX IMVI melanoma): 2240 nM
- GI50 (M14 melanoma): 1150 nM
- TGI (M14 melanoma): 13600 nM
- GI50 (MALME-3M melanoma): 2320 nM
- TGI (MALME-3M melanoma): 14500 nM
- GI50 (MCF7 breast): 381 nM
- TGI (MCF7 breast): > 100000 nM
- GI50 (MDA-MB-231 breast): 712 nM
- TGI (MDA-MB-231 breast): 6360 nM
- GI50 (MDA-MB-435): 433 nM
- GI50 (MOLT-4 leukemia): 1270 nM
- TGI (MOLT-4 leukemia): > 100000 nM
- GI50 (NCI-H226 lung): 1520 nM
- TGI (NCI-H226 lung): > 51000 nM
- GI50 (NCI-H23 lung): 971 nM
- TGI (NCI-H23 lung): 4890 nM
- GI50 (NCI-H460 lung): 497 nM
- GI50 (NCI-H522 lung): 976 nM
- TGI (NCI-H522 lung): 3770 nM
- GI50 (NCI/ADR-RES ovarian): > 75900 nM
- TGI (NCI/ADR-RES ovarian): > 100000 nM
- GI50 (OVCAR-3 ovarian): 364 nM
- TGI (OVCAR-3 ovarian): 1370 nM
- GI50 (OVCAR-4 ovarian): 1380 nM
- TGI (OVCAR-4 ovarian): 22300 nM
- GI50 (OVCAR-5 ovarian): 2960 nM
- TGI (OVCAR-5 ovarian): > 27100 nM
- GI50 (OVCAR-8 ovarian): 401 nM
- TGI (OVCAR-8 ovarian): 26900 nM
- GI50 (PC-3 prostate): 782 nM
- TGI (PC-3 prostate): > 100000 nM
- GI50 (RPMI-8226 leukemia): 310 nM
- GI50 (RXF 393 renal): 273 nM
- TGI (RXF 393 renal): 803 nM
- GI50 (SF-268 CNS): 1090 nM
- TGI (SF-268 CNS): 20400 nM
- GI50 (SF-295 CNS): 980 nM
- TGI (SF-295 CNS): 3690 nM
- GI50 (SF-539 CNS): 721 nM
- TGI (SF-539 CNS): 3030 nM
- GI50 (SK-MEL-2 melanoma): 2210 nM
- TGI (SK-MEL-2 melanoma): 5780 nM
- GI50 (SK-MEL-28 melanoma): 1420 nM
- TGI (SK-MEL-28 melanoma): 12700 nM
- GI50 (SK-MEL-5 melanoma): 871 nM
- TGI (SK-MEL-5 melanoma): 4390 nM
- GI50 (SK-OV-3 ovarian): 2580 nM
- TGI (SK-OV-3 ovarian): > 29800 nM
- GI50 (SN12C renal): 632 nM
- TGI (SN12C renal): 9010 nM
- GI50 (SNB-19 CNS): 2710 nM
- TGI (SNB-19 CNS): > 59500 nM
- GI50 (SNB-75 CNS): 2410 nM
- TGI (SNB-75 CNS): > 23900 nM
- GI50 (SR leukemia): 245 nM
- TGI (SR leukemia): > 100000 nM
- GI50 (SW-620 colon): 485 nM
- GI50 (T-47D breast): 1670 nM
- TGI (T-47D breast): > 57000 nM
- GI50 (TK-10 renal): 1800 nM
- TGI (TK-10 renal): 12900 nM
- GI50 (U251 CNS): 373 nM
- TGI (U251 CNS): 1470 nM
- GI50 (UACC-257 melanoma): 1420 nM
- TGI (UACC-257 melanoma): 65400 nM
- GI50 (UACC-62 melanoma): 887 nM
- TGI (UACC-62 melanoma): 3390 nM
- GI50 (UO-31 renal): 1380 nM
- TGI (UO-31 renal): 7780 nM
